Results reported in US9717714B2, “Spirocyclic CETP inhibitors” (Merck Sharp & Dohme Corp., priority 2012, dated 2017).
Where two headings read alike, the source gives them in different places.

How the values were obtained:
[1] = target: CETP (Homo sapiens (Human), UniProt P11597); assay: Scintillation Proximity Assay (SPA) for CETP activity; format: biochemical; conditions: 15 nM CETP
Method: Protocol: Scintillation Proximity Assay (SPA) for CETP Activity
First, low density lipoprotein (LDL) (Meridian) was biotinylated by incubating LDL with biotin for 1 hour on ice, after which it was dialyzed to remove free biotin. Then compounds at varying concentrations were incubated with 15 nM CETP (reagent production group, In Vitro Pharmacology, MRL Rahway) and 50 ug/ml of the biotinylated LDL in 50 mM HEPES, 150 mM NaCl, pH 7.4, for 1 hour at 37° C. The reaction was started by adding ^3H-cholesterol ester high density lipoprotein (HDL) (American Radiochemicals Corp) at a concentration of ˜0.6 nM. The reaction proceeded for 2 hours at 37° C., after which time it was quenched by the addition of 12% acetic acid. PVT streptavadin-coated scintillation proximity beads, which had been brought to room temperature, were then added at a concentration of 4 mg/ml. The assay was then mixed and counted after one half hour in a Microbeta plate reader.

[2] = target: endogenous CETP from serum (Homo sapiens (Human), UniProt P11597); assay: RTA assay in 95% human serum (CETP-catalyzed CE and TG transfer, endogenous CETP); format: biochemical
Sequence of endogenous CETP from serum (P11597 18-493 limits assumed): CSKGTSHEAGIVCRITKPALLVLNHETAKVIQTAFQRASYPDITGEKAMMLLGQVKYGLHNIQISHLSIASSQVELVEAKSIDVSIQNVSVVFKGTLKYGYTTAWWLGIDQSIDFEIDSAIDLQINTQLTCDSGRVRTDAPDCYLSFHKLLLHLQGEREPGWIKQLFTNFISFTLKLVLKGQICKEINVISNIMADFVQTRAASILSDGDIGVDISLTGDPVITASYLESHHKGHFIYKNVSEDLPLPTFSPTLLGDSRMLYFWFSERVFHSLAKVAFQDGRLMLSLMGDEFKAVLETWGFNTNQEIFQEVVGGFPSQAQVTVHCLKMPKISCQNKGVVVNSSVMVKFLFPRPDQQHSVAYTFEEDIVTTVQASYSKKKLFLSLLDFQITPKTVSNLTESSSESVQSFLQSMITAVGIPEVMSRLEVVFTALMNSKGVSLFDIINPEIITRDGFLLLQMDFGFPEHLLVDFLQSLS
Excerpt: In Vitro Radioactive Assays of CETP-Catalyzed CE and TG Transfer (RTA Assay)
Reagents and sources are: [3H] cholesteryl oleate (GE #TRK.886), [3H] Triolein (Perkin-Elmer NET-431), Butylated hydroxyl toluene (Aldrich, #D4740-4), DOPC (Sigma, #P6354), Sodium Bromide (Fisher scientific #S255-500), PEG 8000 (Fisher, #BP233-1), and human HDL (Intracel Corp #RP-036).
Both assays measure the transfer of [3H] cholesteryl oleate or [3H] triolein from exogenous LDL to HDL.
Radiolabeled donor particles are generated by first combining 100 μl of 200 μM butylated hydroxyl toluene in CHCl3, 216 μL of 21.57 mM DOPC in EtOH, and either 500 μCi [3H]-triolein (Perkin Elmer #NET-431) or 500 μCi [3H]-cholesteryl oleate (GE #TRK886) in a glass tube. Reagents are mixed, dried under nitrogen, and then resuspended in 2 mL of 50 mM Tris, 27 μM EDTA at pH 7.4. After a brief vortex, the solution is sonicated until clear and mixed with 20 mL of fresh human serum. The mixture is incubated overnight at 37° C. The [3H] labeled LDL substrate is separated at 1.063 g/ml density by sequential ultracentrifugal flotation in NaBr according to the method of Havel, Eder, et al., 1955, and Chapman, Goldstein, et al., 1981. Once isolated the particles are dialyzed 3× in CETP buffer (50 mM Tris, pH 7.4, 100 mM NaCl, 1 mM EDTA). Human HDL is purchased from Intracel and used as the acceptor particles.
Transfer assays are performed in a 96-well v-bottom polypropylene plate. For the RTA using recombinant CETP (2% RTA), an assay cocktail is prepared with the final concentrations 128 μg/mL HDL, 20 nM rCETP, 2% human serum, and 1×CETP buffer. 1 μL of each test compound diluted in DMSO is added to 47 μL of assay cocktail per well and incubated at 37° C. for 1 hour. To initiate the transfer reaction, 2 μL radiolabeled LDL is added. After an additional 60 min of incubation at 37° C., the transfer action is terminated by precipitation of LDL with an equal volume of 20% W/V PEG 8000. The plates are centrifuged at 2000 rpm for 30 minutes at 4° C. A 40 μL aliquot of the HDL-containing supernatant is transferred to a Packard Optiplate™ with 200 μL of MicroScint™ 20. After mixing, plates are counted by liquid scintillation. Counts present in the supernatant for blanks (wells containing only HDL acceptor, CETP buffer and DMSO) are subtracted from those containing test compounds and used to correct for non-specific transfer.
For the transfer assay using endogenous CETP from serum (95% RTA), the same procedure is used except that human serum is added such that a final concentration of serum of 95% of the total assay volume is achieved, yielding a concentration of approximately 15 nM endogenous CETP in the assay. This is then combined with HDL and CETP buffer and the reaction proceeds as above and is terminated as described.
Comparison of the counts of samples with inhibitors to an uninhibited (DMSO only) positive control yield a percent inhibition. A plot of percent inhibition vs. log of inhibitor concentration, fit to a Sigmoidal 4 parameter equation is used to calculate IC50.
Starting materials are commercially available or are made using known procedures or as shown below. The examples may be synthesized according to the general schemes provided below and through the synthetic intermediates that are described. […] When compounds of Formula I or Formula II are mentioned herein, such compounds include compounds defined generically by Formula I or II and also the specific examples disclosed herein.

[3] = patients on baseline statin therapy, compared with just a statin; cited from earlier work
[4] = generally RTA assay in 95% human serum, read-out: IC50
[5] = 95% human serum, read-out: RTA (95% HS)

Sequence of CETP (P11597 18-493): as the sequence (P11597 18-493 limits assumed) above

**Q.** For COc1ccc(-c2ccc(C(=O)O)cc2C)cc1-c1cnc(N(C)C)nc1CN1C(=O)O[C@@H](c2cc(C(F)(F)F)cc(C(F)(F)F)c2)C12CC2 [Example 8, 3′-[4-({(7S)-7-[3,5-bis(trifluoromethyl)phenyl]-5-oxo-6-oxa-4-azaspiro[2.4]hept-4-yl}methyl)-2-(dimethylamino)pyrimidin-5-yl]-4′-methoxy-2-methylbiphenyl-4-carboxylic acid], which IC50 [1] is on record?
**A.** Its IC50 is 6300 nM.

**Q.** For COc1ncc(-c2ccc(C(=O)O)cc2C)cc1-c1ccc(C(F)(F)F)nc1CN1C(=O)O[C@H](c2cc(C(F)(F)F)cc(C(F)(F)F)c2)C12CC2 [Example 4, 4-[2′-({(7R)-7-[3,5-bis(trifluoromethyl)phenyl]-5-oxo-6-oxa-4-azaspiro[2.4]hept-4-yl}methyl)-2-methoxy-6′-(trifluoromethyl)-3,3′-bipyridin-5-yl]-3-methylbenzoic acid], which IC50 [2, 4] is on record?
**A.** The IC50 was 173 nM.

**Q.** For COc1ccc(-c2ccc(C(=O)O)cc2C)cc1-c1cnc(N2CCOCC2)nc1CN1C(=O)O[C@H](c2cc(C(F)(F)F)cc(C(F)(F)F)c2)C12CCC2 [Example 13, 3′-[4-({(8R)-8-[3,5-bis(trifluoromethyl)phenyl]-6-oxo-7-oxa-5-azaspiro[3.4]oct-5-yl}methyl)-2-morpholin-4-ylpyrimidin-5-yl]-4′-methoxy-2-methylbiphenyl-4-carboxylic acid], which IC50 [2, 4] is on record?
**A.** The IC50 was 242 nM.

**Q.** With COc1ccc([C@H]2C[C@H](C(=O)O)C2)cc1-c1ccc(C(F)(F)F)nc1CN1C(=O)O[C@H](c2cc(C(F)(F)F)cc(C(F)(F)F)c2)C12CC2 [Example 1, trans-3-{3-[2-({(7R)-7-[3,5-bis(trifluoromethyl)phenyl]-5-oxo-6-oxa-4-azaspiro[2.4]hept-4-yl}methyl)-6-(trifluoromethyl)pyridin-3-yl]-4-methoxyphenyl}cyclobutanecarboxylic acid] as the compound, how does the IC50 [2, 5] read?
**A.** The IC50 was 962 nM.

**Q.** For COC(=O)c1ccc(-c2ccc(OC)c(-c3cnc(SC)nc3CN3C(=O)O[C@H](c4cc(C(F)(F)F)cc(C(F)(F)F)c4)C34CCC4)c2)c(C)c1 [Example 17, methyl 3′-[4-({(8R)-8-[3,5-bis(trifluoromethyl)phenyl]-6-oxo-7-oxa-5-azaspiro[3.4]oct-5-yl}methyl)-2-(methylsulfanyl)pyrimidin-5-yl]-4′-methoxy-2-methylbiphenyl-4-carboxylate], which IC50 [2, 5] is on record?
**A.** Its IC50 is 913 nM.

**Q.** For COc1cc(F)c(C(C)C)cc1-c1ccc(C(F)(F)F)cc1CN1C(=O)O[C@H](c2cc(C(F)(F)F)cc(C(F)(F)F)c2)[C@@H]1C [anacetrapib], which “decrease of LDL-C” value [3] is on record?
**A.** The value was 40%.

**Q.** And the “increase of HDL-C” value [3]?
**A.** Its value is 138%.

**Q.** With COc1ccc(-c2ccc(CO)cc2C)cc1-c1cnc(N2CC(F)C2)nc1CN1C(=O)O[C@H](c2cc(C(F)(F)F)cc(C(F)(F)F)c2)C12CCC2 [Example 7, (8R)-8-[3,5-bis(trifluoromethyl)phenyl]-5-({2-(3-fluoroazetidin-1-yl)-5-[4′-(hydroxymethyl)-4-methoxy-2′-methylbiphenyl-3-yl]pyrimidin-4-yl}methyl)-7-oxa-5-azaspiro[3.4]octan-6-one] as the compound, how does the IC50 [2, 4] read?
**A.** The IC50 was 68 nM.

**Q.** Which IC50 [2, 4] does the source give for COc1ccc(-c2ccc(C(=O)O)cc2C)cc1-c1cnc(N2CC(F)C2)nc1CN1C(=O)O[C@H](c2cc(C(F)(F)F)cc(C(F)(F)F)c2)C12CC2 [Example 15, 3′-[4-({(7R)-7-[3,5-bis(trifluoromethyl)phenyl]-5-oxo-6-oxa-4-azaspiro[2.4]hept-4-yl}methyl)-2-(3-fluoroazetidin-1-yl)pyrimidin-5-yl]-4′-methoxy-2-methylbiphenyl-4-carboxylic acid] here?
**A.** The IC50 was 104 nM.

**Q.** Which IC50 [2, 4] does the source give for COc1ccc(-c2ccc(C(=O)O)cc2C)cc1-c1cnc(N(C)S(C)(=O)=O)nc1CN1C(=O)O[C@H](c2cc(C(F)(F)F)cc(C(F)(F)F)c2)C12CCC2 [Example 14, 3′-[4-({(8R)-8-[3,5-bis(trifluoromethyl)phenyl]-6-oxo-7-oxa-5-azaspiro[3.4]oct-5-yl}methyl)-2-[methyl (methylsulfonyl)amino]pyrimidin-5-yl}-4′-methoxy-2-methylbiphenyl-4-carboxylic acid] here?
**A.** Its IC50 is 561 nM.

**Q.** For COc1cc(F)c(C(C)C)cc1-c1cnc(N(C)C)nc1CN1C(=O)OC(c2cc(C(F)(F)F)cc(C(F)(F)F)c2)C12CC2 (centres unmarked) [Example 10, 7-[3,5-bis(trifluoromethyl)phenyl]-4-({2-(dimethylamino)-5-[4-fluoro-2-methoxy-5-(1-methylethyl)phenyl]pyrimidin-4-yl}methyl)-6-oxa-4-azaspiro[2.4]heptan-5-one], which IC50 [2, 4] is on record?
**A.** The IC50 was 345 nM.
